Measured values published in PMC8776063, “Aurora Kinase A Is Involved in Controlling the Localization of Aquaporin-2 in Renal Principal Cells” (International Journal of Molecular Sciences, 2022).
Like-named read-outs stand apart in the source and are kept apart here.

Tests used:
[1] = molecular target: T1, AAK1 (Homo sapiens, UniProt Q2M2I8); experiment: Thermal shift assay; type: binding; conditions: read-out: ΔTm AAK1
T1 construct: purchased in-house thermal shift (DSF) kinase panel (SGC Frankfurt); Promega NanoBRET for AURKA/B/C
T1 sequence (Q2M2I8 27-365): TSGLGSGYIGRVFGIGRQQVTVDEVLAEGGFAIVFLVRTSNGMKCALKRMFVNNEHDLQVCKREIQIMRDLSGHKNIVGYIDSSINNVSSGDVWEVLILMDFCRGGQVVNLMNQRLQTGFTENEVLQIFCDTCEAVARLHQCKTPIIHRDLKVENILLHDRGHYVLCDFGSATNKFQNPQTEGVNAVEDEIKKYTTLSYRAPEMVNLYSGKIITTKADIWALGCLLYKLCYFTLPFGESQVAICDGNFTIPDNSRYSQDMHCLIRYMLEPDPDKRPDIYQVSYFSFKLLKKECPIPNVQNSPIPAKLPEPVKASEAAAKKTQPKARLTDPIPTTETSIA

[2] = molecular target: T2, CHEK2 (Homo sapiens, UniProt O96017); experiment: Thermal shift assay; type: binding; conditions: read-out: ΔTm CHEK2
T2 construct: purchased in-house thermal shift (DSF) kinase panel (SGC Frankfurt); Promega NanoBRET for AURKA/B/C
T2 sequence (O96017 210-531): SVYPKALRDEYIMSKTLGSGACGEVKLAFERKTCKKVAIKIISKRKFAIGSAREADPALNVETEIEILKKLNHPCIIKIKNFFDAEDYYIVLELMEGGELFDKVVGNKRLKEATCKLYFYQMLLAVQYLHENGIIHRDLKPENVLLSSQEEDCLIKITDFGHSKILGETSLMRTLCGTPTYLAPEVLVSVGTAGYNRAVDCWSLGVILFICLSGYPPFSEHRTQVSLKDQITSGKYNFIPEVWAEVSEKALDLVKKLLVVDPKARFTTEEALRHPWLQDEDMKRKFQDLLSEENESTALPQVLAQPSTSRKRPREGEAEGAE

[3] = molecular target: T3, CSNK2A1 (Homo sapiens, UniProt P68400); experiment: Thermal shift assay; type: binding; conditions: read-out: ΔTm CSNK2A1
T3 construct: purchased in-house thermal shift (DSF) kinase panel (SGC Frankfurt); Promega NanoBRET for AURKA/B/C
T3 sequence (P68400 1-337): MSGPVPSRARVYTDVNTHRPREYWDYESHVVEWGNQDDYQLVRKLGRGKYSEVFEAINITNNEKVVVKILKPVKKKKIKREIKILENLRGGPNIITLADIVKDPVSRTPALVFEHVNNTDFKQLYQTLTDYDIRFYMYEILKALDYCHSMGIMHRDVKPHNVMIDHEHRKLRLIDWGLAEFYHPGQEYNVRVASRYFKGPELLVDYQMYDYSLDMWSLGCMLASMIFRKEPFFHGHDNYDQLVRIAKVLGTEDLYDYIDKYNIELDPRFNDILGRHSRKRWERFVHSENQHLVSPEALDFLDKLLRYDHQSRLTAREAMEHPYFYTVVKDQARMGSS

[4] = molecular target: T4, GRK5 (Homo sapiens, UniProt P34947); experiment: Thermal shift assay; type: binding; conditions: read-out: ΔTm GRK5
T4 construct: purchased in-house thermal shift (DSF) kinase panel (SGC Frankfurt); Promega NanoBRET for AURKA/B/C
T4 sequence (P34947 186-514): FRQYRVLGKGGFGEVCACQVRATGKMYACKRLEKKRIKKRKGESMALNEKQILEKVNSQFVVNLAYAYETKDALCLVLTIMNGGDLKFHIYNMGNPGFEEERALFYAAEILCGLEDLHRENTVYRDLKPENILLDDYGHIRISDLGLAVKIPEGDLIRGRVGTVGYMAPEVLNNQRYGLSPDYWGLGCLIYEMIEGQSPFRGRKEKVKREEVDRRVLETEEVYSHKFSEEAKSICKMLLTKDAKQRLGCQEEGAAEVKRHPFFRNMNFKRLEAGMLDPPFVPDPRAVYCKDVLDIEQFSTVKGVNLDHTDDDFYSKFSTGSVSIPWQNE

[5] = molecular target: T5, MAPK1 (Homo sapiens, UniProt P28482); experiment: Thermal shift assay; type: binding; conditions: compound 10 µM; n = 3
T5 construct: purchased in-house thermal shift (DSF) kinase panel (SGC Frankfurt); Promega NanoBRET for AURKA/B/C
T5 sequence (P28482 whole entry): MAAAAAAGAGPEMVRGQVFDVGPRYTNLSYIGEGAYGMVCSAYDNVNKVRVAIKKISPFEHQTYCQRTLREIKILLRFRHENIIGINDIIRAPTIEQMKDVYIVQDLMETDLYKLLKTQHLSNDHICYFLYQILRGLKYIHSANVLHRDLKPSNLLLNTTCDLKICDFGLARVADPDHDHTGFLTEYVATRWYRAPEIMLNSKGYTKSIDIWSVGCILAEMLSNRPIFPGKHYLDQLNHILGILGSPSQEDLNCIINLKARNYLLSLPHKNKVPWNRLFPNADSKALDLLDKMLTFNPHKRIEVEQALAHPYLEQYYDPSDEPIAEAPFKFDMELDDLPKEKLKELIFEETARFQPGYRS

[6] = molecular target: T6, PHKG2 (Homo sapiens, UniProt P15735); experiment: Thermal shift assay; type: binding; conditions: read-out: ΔTm PHKG2
T6 construct: purchased in-house thermal shift (DSF) kinase panel (SGC Frankfurt); Promega NanoBRET for AURKA/B/C
T6 sequence (P15735 6-293): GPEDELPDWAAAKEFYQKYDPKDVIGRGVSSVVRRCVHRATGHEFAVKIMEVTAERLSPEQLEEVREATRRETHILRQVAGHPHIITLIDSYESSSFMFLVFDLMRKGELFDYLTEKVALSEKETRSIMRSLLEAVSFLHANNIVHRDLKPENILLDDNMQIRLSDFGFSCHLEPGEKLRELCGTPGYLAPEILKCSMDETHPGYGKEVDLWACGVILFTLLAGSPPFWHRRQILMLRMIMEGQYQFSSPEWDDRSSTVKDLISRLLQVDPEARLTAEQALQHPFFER

[7] = molecular target: T7, PIM1 (Homo sapiens, UniProt P11309); experiment: Thermal shift assay; type: binding; conditions: read-out: ΔTm PIM1
T7 construct: purchased in-house thermal shift (DSF) kinase panel (SGC Frankfurt); Promega NanoBRET for AURKA/B/C
T7 sequence (P11309 whole entry): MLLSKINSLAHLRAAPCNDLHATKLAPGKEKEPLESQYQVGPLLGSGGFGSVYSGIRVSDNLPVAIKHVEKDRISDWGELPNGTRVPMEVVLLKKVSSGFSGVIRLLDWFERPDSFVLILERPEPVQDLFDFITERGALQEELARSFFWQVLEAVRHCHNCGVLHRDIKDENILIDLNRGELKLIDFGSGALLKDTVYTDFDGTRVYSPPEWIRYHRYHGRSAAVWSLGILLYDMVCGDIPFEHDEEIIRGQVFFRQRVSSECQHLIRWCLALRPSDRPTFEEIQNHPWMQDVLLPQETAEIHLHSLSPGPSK

[8] = molecular target: T8, AURKC (Homo sapiens, UniProt Q9UQB9); experiment: NanoBRET assay in HEK293T cells; type: cell-based
T8 construct: full-length wild-type AURKA, AURKB, and AURKC were obtained as plasmids cloned in frame with a C-terminal NanoLuc-fusion; host or cells: HEK293T
T8 sequence (Q9UQB9 1-309): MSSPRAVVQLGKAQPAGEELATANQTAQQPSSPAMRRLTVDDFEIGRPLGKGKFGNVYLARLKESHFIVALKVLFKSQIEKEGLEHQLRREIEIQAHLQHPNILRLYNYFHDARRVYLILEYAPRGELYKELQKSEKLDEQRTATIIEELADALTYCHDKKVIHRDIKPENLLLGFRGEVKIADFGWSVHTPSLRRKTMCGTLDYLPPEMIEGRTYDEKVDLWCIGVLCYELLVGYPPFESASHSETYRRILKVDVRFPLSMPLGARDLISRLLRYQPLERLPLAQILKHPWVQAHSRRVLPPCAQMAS

[9] = system: MCD4 cells; experiment: MTS assay (cell viability); type: cell-based, mouse; conditions: 30 µM, 10 µM or 1 µM, 1 h; compared to untreated cells
[10] = system: CFL1 phosphorylation in primary IMCD cells; experiment: CFL1 phosphorylation, Western blotting; type: cell-based, rat; conditions: compound 20 µM, 1 h
[11] = system: AURKA; conditions: cited from earlier work
[12] = system: complex of AURKA and TPX2; set-up: method as in PMID 26732741; conditions: cited from earlier work
[13] = system: HCT116; set-up: method as in PMID 19402633, PMID 30097580; conditions: colon cancer cell line HCT116; cited from earlier work
[14] = system: ARID1A-deficient colorectal cancer cells; set-up: method as in PMID 30097580; conditions: cited from earlier work
[15] = NanoBRET, n = 2, mean, Figure 6B, read-out: affinity to intracellular AURKC

IC50 [8, 15] [µM]	Structure (SMILES)	ΔTm at 10 µM ([1]; compound 10 µM, n = 3) [°C]	ΔTm at 10 µM ([2]; compound 10 µM, n = 3) [°C]	ΔTm at 10 µM ([3]; compound 10 µM, n = 3) [°C]	ΔTm at 10 µM ([4]; compound 10 µM, n = 3) [°C]	ΔTm at 10 µM [5] [°C]	ΔTm at 10 µM ([6]; compound 10 µM, n = 3) [°C]	ΔTm at 10 µM ([7]; compound 10 µM, n = 3) [°C]	viability of MCD4 cells [9]	also measured
44.5	O=C(Cc1ccc(Nc2ncc(F)c(Nc3ccc(C(=O)Nc4ccccc4Cl)cc3)n2)cc1)NCCN1CCOCC1 [ERJ2-04]	4.4	1.2	1.3	0.2	0.3	0.3	-0.2	reduced by 10 or 30 µM	
	CCN1CCN(C(=O)Cc2ccc(Nc3ncc(F)c(Nc4ccc(C(=O)O)cc4)n3)cc2)CC1 [ERJ2-12]	3.8	0.3	1.3	0.2	-0.1	0.2	1.1	does not affect	IC50 ([8]; NanoBRET, n = 2, Figure 6B, bounds, read-out: affinity to intracellular AURKC): > 50 µM
	CCN1CCN(C(=O)Cc2ccc(Nc3ncc(F)c(Nc4ccc(C(=O)Nc5ccccc5Cl)cc4)n3)cc2)CC1 [Aurora-A inhibitor I, reference compound]					0.4			did not elicit any significant effects	ΔTm at 10 µM [1]: 2.3 °C; ΔTm at 10 µM [2]: 2.2 °C; ΔTm at 10 µM [3]: 1.1 °C; ΔTm at 10 µM [4]: 0.2 °C; ΔTm at 10 µM [6]: 0.7 °C; ΔTm at 10 µM [7]: 0.2 °C; IC50 [8]: > 50 µM; CFL1 phosphorylation [10]: Relatively low levels; IC50 ([11]; cell-free assay): 3.4 nM; selectivity for AURKA over AURKB [11]: 1000 fold; increase of binding to the AURKA-TPX2 complex [12]: 2.4 fold; antiproliferative effects [13]: Antiproliferative effects; cell cycle arrest, multinucleation and apoptosis [14]: G2/M cell cycle arrest, multinucleation, and apoptosis
12	NC(=O)Cc1ccc(Nc2ncc(F)c(Nc3ccc(C(=O)Nc4ccccc4Cl)cc3)n2)cc1 [ERJ2-06]	6.8	3.5	1.6	0	0.1	0.9	0.2	did not elicit any significant effects	

Structure (SMILES)	IC50 [8, 15] [µM]	ΔTm at 10 µM ([1]; compound 10 µM, n = 3) [°C]	ΔTm at 10 µM ([2]; compound 10 µM, n = 3) [°C]	ΔTm at 10 µM ([3]; compound 10 µM, n = 3) [°C]	ΔTm at 10 µM ([4]; compound 10 µM, n = 3) [°C]	ΔTm at 10 µM [5] [°C]	ΔTm at 10 µM ([6]; compound 10 µM, n = 3) [°C]	ΔTm at 10 µM ([7]; compound 10 µM, n = 3) [°C]	viability of MCD4 cells [9]	also measured
CCN1CCN(C(=O)Cc2ccc(Nc3ncc(F)c(Nc4ccc(C(=O)Nc5ccccc5)cc4)n3)cc2)CC1 [ERJ2-11]	46	7.3	3.6	1.1	0.2	-0.1	0.8	0.4	reduced by 10 or 30 µM	
